According to US10827945B2, “Radiologically identified tumor habitats” (H. LEE MOFFITT CANCER CENTER AND RESEARCH INSTITUTE, INC., priority 2014, dated 2020):

Key:
[1] = system: soft tissue sarcomas (STS); conditions: across all histological sub-types of STS; cited from earlier work
[2] = system: osteosarcoma xenotransplants; assay: Osteosarcoma xenotransplant models, ADC (diffusion MRI) and tumor response; type: in vivo, mouse; conditions: for anti-tumor response: osteosarcoma xenotransplants; for shift of ADC histograms: within 48 hr following treatment
Source text: Combined MRI and histology image analyses were used to examine effects of dasatinib+Tcn in a Ewings sarcoma model; and the response to a novel Wee-1 checkpoint inhibitor, MK1775, alone and in combination with gemcitabine in osteosarcoma xenotransplants [Kreahling J M, et al. Mol Cancer Ther. 2012 11(1):174-82; Kreahling J M, et al. PloS one. 2013 8(3):e57523]. In the Ewing's model, the pre-therapy spin-echo T2 and post-therapy response of ADC were compared to tumor volume changes.
In the osteosarcoma xenotransplant models, the change in ADC was measured following treatment with gemcitabine and the wee-1 inhibitor MK-1775, alone and in combination. […] The change in ADC was highly correlated with tumor growth rate response. Also, the shapes of the histograms changed with response, going from Gaussian to a log-normal distributions, with increased skewness.
At a deeper level of analysis, the ADC maps were analyzed for image entropy, which is calculated as the randomness of a 3×3 pixel matrix surrounding the pixel under test (P-U-T).

[3] = system: orthotopically implanted Hs766t PDAC cells; assay: DCE-MRI/diffusion MRI in orthotopically implanted Hs766t PDAC; type: in vivo; conditions: orthotopic Hs766t
Source text: (§1) In a parallel study, DCE-MRI and Diffusion MRI were investigated as response biomarkers to TH-302 in flank implanted MiaPaCa2 pancreatic adenocarcinoma (PDAC) models. […] 2012 30(7):1002-9]. In a follow-on study, orthotopically implanted Hs766t, MiaPaCa2 and Su.86.86 PDAC cells were used, which have differential sensitivities to TH-302 as monotherapy.

[4] = system: orthotopically implanted MiaPaCa2 PDAC cells; assay: DCE-MRI/diffusion MRI in orthotopically implanted MiaPaCa2 PDAC; type: in vivo; conditions: orthotopic MiaPaCa2
Source text: as §1

[5] = system: orthotopically implanted Su.86.86 PDAC cells; assay: DCE-MRI/diffusion MRI in orthotopically implanted Su.86.86 PDAC; type: in vivo; conditions: orthotopic Su.86.86
Source text: as §1

[6] = system: flank implanted MiaPaCa2 pancreatic adenocarcinoma (PDAC); conditions: cited from earlier work
[7] = based on phase I data; cited from earlier work
[8] = system: regions of profound hypoxia; conditions: cited from earlier work
tumors in KPC mice = conditions: KPC (KrasG12D; p53R172H; Pdx1-Cre) GEMM; cited from earlier work

## COc1cccc2c1C(=O)c1c(O)c3c(c(O)c1C2=O)C[C@@](O)(C(=O)CO)C[C@@H]3O[C@H]1C[C@H](N)[C@H](O)[C@H](C)O1 [DOX, doxorubicin]
[1]
  response rate: 25-40%

## C=CCn1c(=O)c2cnc(Nc3ccc(N4CCN(C)CC4)cc3)nc2n1-c1cccc(C(C)(C)O)n1 [MK-1775]
[2]
  anti-tumor response: non-responsive
  shift of ADC histograms: not
[2]; listed as MK1775
  anti-tumor response: did not

## Cn1c(COP(=O)(NCCBr)NCCBr)cnc1[N+](=O)[O-] [TH-302]
[3]
  Ktrans in response to treatment: decreases
  mean ADC: no changes
  sensitivity as monotherapy: responsive
[4]
  Ktrans in response to treatment: decreases
  mean ADC: no changes
  sensitivity as monotherapy: responsive
[5]
  Ktrans in response to treatment: not
  mean ADC: no changes
  sensitivity as monotherapy: resistant
[6]; at any time point
  ADC (diffusion MRI): no differences
[6]; initial change, strongly correlated with tumor control
  Ktrans (DCE-MRI): drop
[7]
  tolerability: well-tolerated
[8]
  pO2 at which the warhead is released: < 10 mm Hg

## Nc1ccn([C@@H]2O[C@H](CO)[C@@H](O)C2(F)F)c(=O)n1 [gemcitabine]
[2]; compared to controls (p=0.022) and MK1775 (p=0.023)
  change in average ADC-entropy values from pre-treatment: statistically larger variations in ADC values
[2]
  anti-tumor response: robust anti-tumor response
  shift of ADC histograms: shifted to the right
[2]; listed as Gem
  anti-tumor response: responded to therapy
Tumors in KPC mice
  sensitivity of tumors: generally resistant
